Data as given in patent US20220264883A1, “IMIDAZOTHIAZOLE COMPOUNDS AND METHODS FOR TREATING PLANT NEMATODE INFECTIONS” (The Governing Council of the University of Toronto, priority 2019, published 2022).
“And” between values parts separate entries of the source, which are not always exact repeats. Identical values can stand only once. Like-named read-outs stand apart in the source and are kept apart here.

How the values were obtained:
[1] = system: C. oncophora; experiment: whole plant or invertebrate; assay type: in vivo; conditions: Cooperia oncophora, 48 h; eggs of ivermectin-resistant strain, 2 days, egg hatch
From the text: Fresh cattle faeces containing eggs of an ivermectin-resistant strain of C. oncophora were kindly supplied by Dr. Doug Colwell and Dawn Gray (Lethbridge Research Station, Agriculture and Agri-Food Canada). Established methods were used to carry out the experimental cattle infections^60, and these methods were approved by the Lethbridge AAFC Animal Care committee and conducted under animal use license ACC1407. Cattle faeces containing C. oncophora eggs were stored anaerobically at room temperature for a maximum of 6 days before use. Eggs were isolated from faeces using a standard saturated salt flotation method^61 immediately before the egg hatch assay. 80 μl of distilled and deionized water was added to each well of a 96-well culture plate, and then 1 μl of chemical at the appropriate concentration in DMSO was added to each well using a multichannel pipette. Approximately 50 eggs were added per well in 20 μl of water for a final volume of 100 μl in each well, the final DMSO concentration was 1% (v/v). The eggs were incubated in the chemicals for 2 days at room temperature, after which hatching was stopped by the addition of 1 μl iodine tincture to each well. […] “Relative viability” values were calculated by dividing the fraction of eggs that hatched at each concentration by the fraction of eggs that hatched in the corresponding DMSO control wells. Two biological replicates were performed for each dose-response experiment, and the relative viability values were averaged across the biological replicates. The average hatch rate for the DMSO control wells was greater than 93% for both biological replicates. LC50 values were calculated in the same manner as for the C. elegans dose-response assays

[2] = system: C. elegans; experiment: C. elegans dose-response experiments (wild type; embryo to adult and dauer stages); assay type: in vivo; conditions: for LC50: Caenorhabditis elegans
Method: (§1) Forty microliters of an HB101 bacterial suspension in liquid NGM (see above) was added to each well of a 96-well flat-bottom culture plate, after which approximately 25 synchronized L1 worms, in 10 μl of M9 buffer (see ref. 59 for the recipe), were added to each well. The synchronized L1 worms were obtained from an embryo preparation performed the previous day (see ref. 59 for the protocol). For the L1 assays, 0.5 μl of chemical solution (or DMSO alone) was immediately added to the wells using a multichannel pipette, the final DMSO concentration is 1% (v/v). The worms were incubated for 3 days at 20° C. and the number of viable animals was counted. […] Although the counts were performed after 3 days of incubation in the chemical, it was noted that the L1s were dead within 24 hours of the addition of the chemicals. For the L2/L3 assays, the worms were incubated in the absence of chemical for 1 day at 20° C. until they reached the L2/L3 stage, at which point chemical was added as described above. The worms were then allowed to incubate for 2 days at 20° C. and the number of viable animals was counted as described for the L1 assay. For the L4 assays, the worms were incubated for 2 days at 20° C. before the addition of chemicals. The L4-stage worms were then incubated in chemical for an additional day before quantifying the number of viable animals. The adult assays were performed the same way as the L4 assays, however HT115 E. coli carrying the empty dsRNA expressing vector L4440 was used in place of HB101 and the worms were cultured at 25° C. as opposed to 20° C. for the entirety of the experiment. The HT115 suspension was made by concentrating a bacterial culture, with an OD600 of ˜ 0.8, five-fold with liquid NGM containing 1 mM IPTG and 100 μg/ml carbenicillin. The HT115 cells were induced with 1 mM IPTG for one hour before concentrating with NGM.
For the dose-response experiments with embryos, eggs obtained from an embryo preparation were immediately aliquoted into 96-well plate wells. Approximately 25 embryos in 50 μl of M9 buffer were added to each well, and 0.5 μl volumes of the chemicals were added via multichannel, in the same way as for the L1 dose-response assays described above. The plates were incubated at 20° C. for 1 day, at which point the number of hatched eggs was counted.
For the dauer dose-response assays, the CB1370 strain carrying the temperature sensitive daf-2(e1370) allele was used. When grown at the non-permissive temperature of 25° C. these mutants will enter dauer constitutively. The assay was performed similarly to the […] described above, however the L1 worms were allowed to grow for 2 days at 25° C. until they became dauer larvae. At this point chemical was added and the dauers were incubated for 2 days at 25° C. before quantitation of viability. After 2 days, all of the dauer larvae, including the DMSO controls, were relatively motionless and appeared as rigid rods. To activate the worms, 1 μl of 1 N sodium hydroxide was added to each well and the plates were agitated vigorously before counting. This was done one well at a time.
At least three biological replicates were performed for each dose-response assay. For each biological replicate, two technical replicates were performed and the numbers of viable animals for each technical replicate were combined (i.e. ˜50 worms assayed per concentration). The number of viable worms at each concentration was divided by the corresponding DMSO control value to give the “relative viability” for each concentration. The “relative viability” values were then averaged across the biological replicates. LC50 values were calculated using Graphpad Prism. The concentration values were log-transformed and a four-parameter logistic curve was fitted to the dose-response data by non-linear regression, from which the LC50 values were extracted.

[3] = system: C. elegans; experiment: C. elegans minimum lethal concentration dose-response; assay type: in vivo, Caenorhabditis elegans; conditions: Caenorhabditis elegans, C. elegans viability
Method: as §1
Compounds Ia to Im, dose-response assays were performed with C. elegans. 8 of the compounds killed C. elegans with minimum lethal concentrations less than or equal to 100 μM (Table 6). Compounds Ia, Ic, and Ij were the most potently lethal nematicides in this assay, having minimum lethal concentrations of 6.25 μM and below. The positive control nematicide tioxazafen killed nematodes at 3.13 μM and above.

[4] = Saccharomyces cerevisiae (budding yeast) dose-response experiments; assay type: cell-based; conditions: Saccharomyces cerevisiae, yeast strain RY0568 culture; non-target system; growth over 18 hours; read-out: S. cerevisiae LC50
Method: A saturated culture of the yeast strain RY0568 was diluted to an OD600 of 0.015 with fresh YPD media (see ref. 62). 100 μL of this dilute yeast suspension was added to each well of a 96-well plate. The yeast were grown for 4 hours at 30° C. with shaking at 140 rpm. Using a multichannel pipette, 1 μL of chemical solution was added to each well to achieve the desired final concentrations. The final DMSO concentration was 1% (v/v). The microwell plate was then loaded into a TECAN plate reader set at 30° C. The OD600 of each well was measured over an 18-hour period, and the plate was shaken intermittently throughout the run. The areas under the resultant growth curves were calculated using R scripts adapted from those found in the MESS package. The area under the curve at each concentration of a dose-response assay was divided by the area under the curve for the corresponding DMSO control, resulting in a “relative fitness” value for each concentration tested. Three biological replicates were performed for each dose-response experiment, and the relative fitness values were averaged across the three replicates.

[5] = 72 h, L1 worms, 3 days at 20° C., read-out: C. elegans LC50
[6] = wild-type, resistance none, read-out: LC50 in strain N2

| Structure (SMILES) | LC50 [1] [µM] | LC50 [2, 5] [µM] | LC50 [2, 6] [µM] | minimal effective concentration [3] | CC50 at 18 h [4] [µM] | killing of each developmental stage of C. elegans from embryo to adult ([2]; FIG. 1B) | killing of the non-reproductive dauer stage of C. elegans ([2]; daf-2(e1370) dauers, FIG. 1B) |
| --- | --- | --- | --- | --- | --- | --- | --- |
| Fc1ccc(-c2cn3ccsc3n2)cc1 [Ib] | 5.4 | 29.7 | 29.7 | 25 µM and 5.5 µg/mL | > 100 | – | – |
| Cc1csc2nc(-c3ccccc3)cn12 [Compound Ie] | 0.9 | > 100 | – | > 100 µM and > 21.4 µg/mL | > 100 | – | – |
| Clc1ccc(-c2cn3ccsc3n2)cc1 [Ia] | 3.7 | 6.9 | 6.9 | 1.5 µg/mL | > 100 | micromolar potency | can also kill the non-reproductive dauer stage |
